Assay [1] relates to Staphylococcus aureus. The experiment in a line: Antibacterial activity against Staphylococcus aureus SA 22 at 100 ug/ml after 24 hr by filter paper disk method. In kind it is functional. To be noted: for zone of inhibition at 100 µg/mL: SA 22, 24 h, read-out: DIZ.
Assay [2] has as its system Escherichia coli. The experiment in a line: Antibacterial activity against Escherichia coli K-12 at 100 ug/ml after 24 hr by filter paper disk method. In kind it is functional. To be noted: for zone of inhibition at 100 µg/mL: K-12, 24 h, read-out: DIZ.
For assay [3], the system named is Aspergillus fumigatus. As to the kind of experiment: Antifungal activity against Aspergillus fumigatus at 100 ug/ml after 72 hr. It counts as functional. The settings on record: for zone of inhibition at 100 µg/mL: read-out: DIZ.
The test system of assay [4] is Bacillus subtilis. The experiment in a line: Antibacterial activity against Bacillus subtilis MTCC 121 at 100 ug/ml after 24 hr by filter paper disk method. It counts as functional. To be noted: for zone of inhibition at 100 µg/mL: MTCC 121, 24 h, read-out: DIZ.
Assay [5] relates to Aspergillus niger. As to the kind of experiment: Antifungal activity against Aspergillus niger at 100 ug/ml after 72 hr. It counts as functional. To be noted: for zone of inhibition at 100 µg/mL: read-out: DIZ.
The test system of assay [6] is Candida albicans. As to the kind of experiment: Antifungal activity against Candida albicans at 100 ug/ml after 18 to 48 hr. In kind it is functional. The settings on record: for zone of inhibition at 100 µg/mL: read-out: DIZ.
In assay [7] the test system is Salmonella typhimurium. The experiment in a line: Antibacterial activity against Salmonella enterica subsp. enterica serovar Typhimurium MTCC 98 at 100 ug/ml after 24 hr by filter paper disk method. It counts as functional. To be noted: for zone of inhibition at 100 µg/mL: MTCC 98, 24 h, read-out: DIZ.
Assay [8] relates to Candida albicans. The experiment in a line: Antifungal activity against Candida albicans at 30 ug/disk after 18 to 48 hr. It counts as functional, organism-based.
The test system of assay [9] is Aspergillus fumigatus. As to the kind of experiment: Antifungal activity against Aspergillus fumigatus at 30 ug/disk after 72 hr. In kind it is functional, organism-based.
In assay [10] the test system is Aspergillus niger. The experiment in a line: Antifungal activity against Aspergillus niger at 30 ug/disk after 72 hr. In kind it is functional, organism-based.
Assay [11] has as its system Escherichia coli. As to the kind of experiment: Antibacterial activity against Escherichia coli K-12 at 30 ug/disc after 24 hr by filter paper disk method. In kind it is functional. The settings on record: K-12, 24 h, read-out: DIZ.
Assay [12] relates to Salmonella typhimurium. The experiment in a line: Antibacterial activity against Salmonella enterica subsp. enterica serovar Typhimurium MTCC 98 at 30 ug/disc after 24 hr by filter paper disk method. It counts as functional. To be noted: MTCC 98, 24 h, read-out: DIZ.
Assay [13] has as its system Bacillus subtilis. The experiment in a line: Antibacterial activity against Bacillus subtilis MTCC 121 at 30 ug/disk after 24 hr by filter paper disk method. It counts as functional. To be noted: MTCC 121, 24 h, read-out: DIZ.
Assay [14] deals with Staphylococcus aureus. The experiment in a line: Antibacterial activity against Staphylococcus aureus SA 22 at 30 ug/disc after 24 hr by filter paper disk method. It counts as functional. To be noted: SA 22, 24 h, read-out: DIZ.

Here are results for nine compounds from ChEMBL document CHEMBL3046515, “Zn(Proline)2-catalyzed Knoevenagel condensation under solvent-free/aqueous conditions and biological evaluation of products” (2011).

Calls of active or inactive are those of the source. The calls are words filed in the database; no cut-off is given here.

With `Cc1nn(-c2ccccc2)c(Cl)c1C=C1C(=O)N(C)C(=S)N(C)C1=O`, the zone of inhibition at 100 µg/mL in assay [1] amounted to 12 mm; in [2], 15 mm; in [4], 8 mm; in assay [6] it was 16 mm; in assay [7] it was 17 mm. Moreover, the “diameter of the inhibition zone (DIZ)” value in assay [3] and in assay [5] was “inactive” each time.
As to `Cc1nn(-c2ccccc2)c(Cl)c1C=C1C(=O)N(C)C(=O)N(C)C1=O`, the zone of inhibition at 100 µg/mL came out at 20 mm in [1]; 15 mm in assay [2]; 11 mm in assay [3]; 16 mm in assay [4]; 8 mm in [5]; 11 mm in [6]. Moreover, the zone of inhibition at 100 µg/mL in assay [7] turned out to be 14 mm.
`Cc1nn(-c2ccccc2)c(Cl)c1C=C1C(=O)OC(C)(C)OC1=O`: the zone of inhibition at 100 µg/mL worked out at 19 mm in [1], 15 mm in assay [4] and 14 mm in [6]. Also, the “diameter of the inhibition zone (DIZ)” value in assay [2], in assay [3], in assay [5] and in assay [7] was “inactive” in each case.
Regarding `Cc1nn(-c2ccccc2)c(Cl)c1C=C1C(=O)NC(=O)NC1=O`, the zone of inhibition at 100 µg/mL turned out to be 17 mm in assay [1], 15 mm in assay [2], 19 mm in assay [4] and 12 mm in assay [7]. The “diameter of the inhibition zone (DIZ)” value in [3], in assay [5] and in [6] was “inactive” each time.
Turning to NYSTATIN, the “diameter of the inhibition zone (DIZ)” value in assay [1], in assay [2], in [4] and in assay [7] was “inactive” throughout. The inhibition zone (IZ) was 20 mm in assay [8], 18 mm in assay [9] and 18 mm in [10].
Take `CC1=NN(c2ccccc2)C(=O)/C1=C/c1c(C)nn(-c2ccccc2)c1Cl`: the “diameter of the inhibition zone (DIZ)” value in assay [1] and in assay [6] was “inactive” in each case. The zone of inhibition at 100 µg/mL in [2] was found to be 8 mm; in assay [3], 11 mm; in assay [4], 12 mm; in [5], 10 mm; in assay [7] it was 12 mm.
Take `Cc1nn(-c2ccccc2)c(Cl)c1/C=C1\Sc2ccccc2NC1=O`: the zone of inhibition at 100 µg/mL in assay [1] came to 14 mm; in [2] it was 8 mm; in assay [6] it was 15 mm. The “diameter of the inhibition zone (DIZ)” value in assay [3], in assay [4], in assay [5] and in assay [7] was “inactive” each time.
With `Cc1nn(-c2ccccc2)c(Cl)c1C=C1C(=O)c2ccccc2C1=O`, the zone of inhibition at 100 µg/mL stood at 12 mm in [1]; 17 mm in assay [2]; 10 mm in assay [3]; 8 mm in [4]; 8 mm in assay [5]; 12 mm in [6]. Further, the zone of inhibition at 100 µg/mL in assay [7] was determined as 15 mm.
For `O=C(N[C@H](CO)[C@H](O)c1ccc([N+](=O)[O-])cc1)C(Cl)Cl` [CHLORAMPHENICOL], the zone of inhibition at 30 µg/disc in assay [11] was 25 mm; in [12], 20 mm; in assay [13] it was 24 mm; in [14], 26 mm. Besides, the “diameter of the inhibition zone (DIZ)” value in assay [3], in [5] and in assay [6] was “inactive” throughout.
